{"source": "paper PMC11013419", "about": "“Understanding Antidiabetic Potential of Oligosaccharides from Red Alga Dulse Devaleraea inkyuleei Xylan by Investigating α-Amylase and α-Glucosidase Inhibition” (Molecules, 2024)", "key": {"α-glucosidase": {"system": "α-glucosidase", "parameters": "method as in doi:10.1007/s12257-017-0049-8", "details": "at 10 mg/mL; cited from earlier work"}, "MGAM [1]": {"molecular_target": "MGAM", "parameters": "method as in PMID 22058037", "details": "as reported; cited from earlier work"}, "[2]": {"molecular_target": "T1, recombined human maltase-glucoamylase (MGAM) (Homo sapiens, UniProt O43451)", "T1 construct": "made in house", "T1 sequence (O43451 whole entry)": "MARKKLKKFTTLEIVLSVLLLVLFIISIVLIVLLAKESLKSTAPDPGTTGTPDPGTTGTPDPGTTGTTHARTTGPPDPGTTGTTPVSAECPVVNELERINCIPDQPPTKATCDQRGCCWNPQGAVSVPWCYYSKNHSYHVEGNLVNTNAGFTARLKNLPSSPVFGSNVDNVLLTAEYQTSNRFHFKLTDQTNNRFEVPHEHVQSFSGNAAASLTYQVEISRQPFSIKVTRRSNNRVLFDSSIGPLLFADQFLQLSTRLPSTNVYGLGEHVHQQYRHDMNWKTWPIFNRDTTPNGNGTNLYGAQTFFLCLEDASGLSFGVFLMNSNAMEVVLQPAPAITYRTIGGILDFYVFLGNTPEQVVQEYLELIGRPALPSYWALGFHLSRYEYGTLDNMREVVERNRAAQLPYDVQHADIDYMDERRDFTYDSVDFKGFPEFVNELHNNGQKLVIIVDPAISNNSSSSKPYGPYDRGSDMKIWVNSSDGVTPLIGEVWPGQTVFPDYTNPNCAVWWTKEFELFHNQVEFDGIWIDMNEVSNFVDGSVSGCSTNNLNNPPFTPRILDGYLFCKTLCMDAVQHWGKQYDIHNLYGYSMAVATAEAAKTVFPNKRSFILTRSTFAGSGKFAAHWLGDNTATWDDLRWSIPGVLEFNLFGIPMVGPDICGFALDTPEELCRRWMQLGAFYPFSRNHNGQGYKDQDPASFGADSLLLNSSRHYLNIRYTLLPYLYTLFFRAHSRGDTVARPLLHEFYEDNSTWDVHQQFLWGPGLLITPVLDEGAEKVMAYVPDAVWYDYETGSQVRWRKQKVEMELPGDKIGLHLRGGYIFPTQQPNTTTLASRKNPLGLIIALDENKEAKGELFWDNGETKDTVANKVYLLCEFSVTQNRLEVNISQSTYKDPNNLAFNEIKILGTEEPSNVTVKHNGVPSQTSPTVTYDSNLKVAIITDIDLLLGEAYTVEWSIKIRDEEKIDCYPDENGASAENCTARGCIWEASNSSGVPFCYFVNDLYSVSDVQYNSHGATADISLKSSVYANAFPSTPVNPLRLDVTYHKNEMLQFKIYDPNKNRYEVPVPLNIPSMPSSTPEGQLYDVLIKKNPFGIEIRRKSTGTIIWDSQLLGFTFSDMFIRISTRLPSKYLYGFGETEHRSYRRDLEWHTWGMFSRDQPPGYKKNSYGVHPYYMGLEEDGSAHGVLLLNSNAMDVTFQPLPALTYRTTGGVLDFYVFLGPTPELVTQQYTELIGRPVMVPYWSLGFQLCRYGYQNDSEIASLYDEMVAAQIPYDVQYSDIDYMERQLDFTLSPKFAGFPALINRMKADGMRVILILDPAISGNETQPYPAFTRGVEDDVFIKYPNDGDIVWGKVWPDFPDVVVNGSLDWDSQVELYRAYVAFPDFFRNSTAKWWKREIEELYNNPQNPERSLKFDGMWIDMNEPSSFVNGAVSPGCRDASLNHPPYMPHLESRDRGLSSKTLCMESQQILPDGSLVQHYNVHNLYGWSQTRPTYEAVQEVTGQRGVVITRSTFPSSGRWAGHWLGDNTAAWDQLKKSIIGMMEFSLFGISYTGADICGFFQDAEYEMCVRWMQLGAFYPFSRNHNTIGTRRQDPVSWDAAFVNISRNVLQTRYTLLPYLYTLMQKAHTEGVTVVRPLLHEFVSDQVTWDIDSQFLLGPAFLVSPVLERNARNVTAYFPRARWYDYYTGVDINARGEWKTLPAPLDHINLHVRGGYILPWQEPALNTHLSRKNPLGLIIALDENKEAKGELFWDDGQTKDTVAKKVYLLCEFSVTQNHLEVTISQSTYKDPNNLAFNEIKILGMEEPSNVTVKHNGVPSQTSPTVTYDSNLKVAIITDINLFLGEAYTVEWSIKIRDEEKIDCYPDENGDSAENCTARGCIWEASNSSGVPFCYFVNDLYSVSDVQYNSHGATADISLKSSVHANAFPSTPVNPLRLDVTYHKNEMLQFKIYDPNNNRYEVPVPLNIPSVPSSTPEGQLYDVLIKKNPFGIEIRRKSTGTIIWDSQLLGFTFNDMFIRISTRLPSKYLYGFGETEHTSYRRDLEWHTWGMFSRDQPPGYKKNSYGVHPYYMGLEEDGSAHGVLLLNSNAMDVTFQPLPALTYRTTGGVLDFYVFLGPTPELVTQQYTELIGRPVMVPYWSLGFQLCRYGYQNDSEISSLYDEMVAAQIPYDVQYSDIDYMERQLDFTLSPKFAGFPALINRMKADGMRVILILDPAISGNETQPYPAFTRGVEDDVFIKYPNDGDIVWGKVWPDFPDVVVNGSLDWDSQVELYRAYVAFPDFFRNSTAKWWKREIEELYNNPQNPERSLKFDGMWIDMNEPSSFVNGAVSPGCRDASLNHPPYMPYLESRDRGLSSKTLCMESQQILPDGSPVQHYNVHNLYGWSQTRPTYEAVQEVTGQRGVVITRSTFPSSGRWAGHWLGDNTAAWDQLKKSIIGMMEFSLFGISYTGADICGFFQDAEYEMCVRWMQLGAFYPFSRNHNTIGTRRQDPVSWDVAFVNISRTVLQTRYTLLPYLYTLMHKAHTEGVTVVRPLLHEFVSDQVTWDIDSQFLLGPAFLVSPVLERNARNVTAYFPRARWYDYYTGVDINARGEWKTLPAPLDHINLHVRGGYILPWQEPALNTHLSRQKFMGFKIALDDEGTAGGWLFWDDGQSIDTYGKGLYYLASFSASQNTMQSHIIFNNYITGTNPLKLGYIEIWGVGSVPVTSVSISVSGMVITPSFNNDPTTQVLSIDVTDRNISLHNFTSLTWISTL", "assay": "MGAM inhibition assay (glucose released from maltose)", "type": "biochemical", "details": "maltose substrate, 37 °C, pH 6.4", "procedure": "(§1) For this experiment, recombined human maltase-glucoamylase (MGAM) was prepared as previously reported and dissolved in 0.1 M phosphate buffer (pH 6.4) to produce a solution at 0.5 U/mL. Pre-incubation was initiated by mixing 20 µL of MGAM solution with 20 µL of inhibitor or distilled water for 10 min at 37 °C. Then, 40 µL of 8 mM maltose or phosphate buffer was added and the mixture was incubated at 37 °C for 10 min, and the reaction was stopped by boiling for 10 min and cooling in an ice bath. Glucose was quantified using a Glucose CII-test (Wako Pure Chemical Industries, Osaka, Japan). The 20 µL reaction mixture was added to a 100 µL of Glucose CII-test. The reaction proceeded for 10 min at 37 °C, and the absorbance at 492 nm was measured. The inhibition was analysed at different inhibitor and substrate concentrations. The half-maximum inhibition concentration (IC50) was calculated using nonlinear regression. The MGAM inhibitory activity was calculated as follows: MGAM inhibitory activity=1−As−A0/Ac×100 where As represents the absorbance of the sample, Ac is the absorbance of the control without the inhibitor, and A0 is the absorbance of the sample without MGAM."}, "[3]": {"molecular_target": "T2, α-amylase from porcine pancreas (Sus scrofa, UniProt P00690)", "T2 construct": "α-amylase from porcine pancreas (EC 3.2.1.1), type VI-B; purchased Sigma Aldrich type VI-B; host or cells: porcine pancreas", "T2 sequence (P00690 16-511)": "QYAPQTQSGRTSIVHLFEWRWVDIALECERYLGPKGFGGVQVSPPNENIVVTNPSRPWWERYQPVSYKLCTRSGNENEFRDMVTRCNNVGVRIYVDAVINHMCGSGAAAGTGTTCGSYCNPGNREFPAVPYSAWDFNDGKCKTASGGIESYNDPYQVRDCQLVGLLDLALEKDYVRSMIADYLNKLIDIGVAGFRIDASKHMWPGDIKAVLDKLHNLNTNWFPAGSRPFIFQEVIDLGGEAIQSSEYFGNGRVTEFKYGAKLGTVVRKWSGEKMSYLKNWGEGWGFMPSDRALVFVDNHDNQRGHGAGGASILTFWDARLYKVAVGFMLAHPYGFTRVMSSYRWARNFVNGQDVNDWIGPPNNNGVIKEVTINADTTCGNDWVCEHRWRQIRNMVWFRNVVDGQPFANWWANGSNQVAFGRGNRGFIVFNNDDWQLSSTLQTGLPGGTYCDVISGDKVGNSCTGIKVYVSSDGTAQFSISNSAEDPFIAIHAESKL", "assay": "α-Amylase inhibition assay (starch, DNS method)", "type": "biochemical", "details": "for IC50: porcine pancreas α-amylase, 1% starch, 37 °C, pH 6.9", "procedure": "(§2) The α-amylase from porcine pancreas solution was freshly prepared by mixing enzyme powder with 20 mM phosphate buffer (pH 6.9) containing 6.7 mM NaCl to produce a solution at 3 U/mL [39]. Pre-incubation was initiated by mixing 20 µL of α-amylase solution with 20 µL of inhibitor or distilled water for 10 min at 37 °C. Then, 20 µL of 1% (w/v) starch (prepared in 20 mM phosphate buffer (pH 6.9) containing 6.7 mM NaCl and heated at 100 °C for 10 min) or phosphate buffer was added, and the mixture was incubated at 37 °C for 10 min. The reaction was stopped by boiling the mixture for 10 min and cooling in an ice bath. The concentration of reducing sugars was calculated by the DNS method. The inhibition was analysed at different inhibitor and substrate concentrations. The half-maximum inhibition concentration (IC50) was calculated using nonlinear regression. The α-amylase inhibitory activity was calculated as follows: α-amylase inhibitory activity=1−As−A0/Ac×100 where As represents the absorbance of the sample, Ac is the absorbance of the control without the inhibitor, and A0 is the absorbance of the sample without α-amylase."}, "MGAM [4]": {"molecular_target": "T3, MGAM (Homo sapiens, UniProt O43451)", "T3 construct": "made in house", "T3 sequence (O43451 whole entry)": "as the sequence (O43451 whole entry) above", "assay": "Kinetics of MGAM inhibition (Michaelis–Menten, Lineweaver–Burk)", "type": "biochemical", "details": "for Inhibition Type (MGAM): Lineweaver–Burk plot; for Vmax^app, inhibitor concentration A / Vmax^app, inhibitor concentration B / Vmax^app, inhibitor concentration C: MGAM, without inhibitor 0.089; for Vmax^app, inhibitor concentration A: A: X2 1.49, X3 1.63, DX3 1.33, DX4 1.28 mg/mL; for Vmax^app, inhibitor concentration B: B: X2 2.79, X3 4.08, DX3 3.32, DX4 3.19 mg/mL; for Vmax^app, inhibitor concentration C: C: X2 3.73, X3 10.19, DX3 8.30, DX4 7.98 mg/mL; for Ki: competitive inhibition constant", "procedure": "as §1\nTo study the kinetics of MGAM and α-amylase inhibition by XOS, the initial velocity in absorbance/min (ΔOD/min) was calculated at different substrate concentrations (0 to 10 mg/mL starch concentration for α-amylase and 0 to 8 mM maltose concentration for MGAM) and XOS concentrations. The values of initial velocity at different substrate concentrations at each XOS concentration was plotted (Michaelis–Menten plot), as well as the double reciprocal plot at each XOS concentration (Lineweaver–Burk plot).\nThe Michaelis–Menten equation for competitive inhibition is given as follows: v=Vmax×S/Km1+I/Ki+S=Vmaxapp×S/Kmapp+S\nAnd the corresponding Lineweaver–Burk equation is given as follows: 1/v=Km/Vmax1+I/Ki1/S+1/Vmax where v is the initial velocity, Vmax is the maximum initial reaction velocity, I is the concentration of the inhibitor, S is the concentration of the substrate, Km is the Michaelis constant, and Ki is the competitive inhibition constant."}, "α-amylase": {"molecular_target": "T4, α-amylase (Sus scrofa, UniProt P00690)", "T4 construct": "α-amylase from porcine pancreas (EC 3.2.1.1), type VI-B; purchased Sigma Aldrich type VI-B; host or cells: porcine pancreas", "T4 sequence (P00690 16-511)": "T2 sequence (P00690 16-511)", "assay": "Kinetics of α-amylase inhibition (Michaelis–Menten, Lineweaver–Burk)", "type": "biochemical, porcine", "procedure": "as §2, with “α-amylase. […]” for “α-amylase.”"}}, "data": [{"smiles": "OC[C@H]1O[C@@H](O)[C@H](O)[C@@H](O[C@@H]2O[C@H]3CO[C@@H]([C@@H]2O)[C@@H]3O[C@@H]2O[C@H](CO)[C@H](O)[C@H](O[C@@H]3O[C@H]4CO[C@@H]([C@@H]3O)[C@@H]4O[C@@H]3O[C@H](CO)[C@H](O)[C@H](O[C@@H]4O[C@H]5CO[C@@H]([C@@H]4O)[C@@H]5O)[C@H]3O)[C@H]2O)[C@H]1O", "note": "[neoagarohexaose]", "values": [{"measurement": "inhibition rate", "setting": "α-glucosidase", "value": 17.0, "unit": "%"}]}, {"smiles": "C[C@H]1O[C@H](O[C@H]2[C@H](O)[C@@H](O)[C@@H](O[C@H]3[C@H](O)[C@@H](O)C(O)O[C@@H]3CO)O[C@@H]2CO)[C@H](O)[C@@H](O)[C@@H]1N[C@H]1C=C(CO)[C@@H](O)[C@H](O)[C@H]1O", "note": "(stereo partly shown) [Acarbose]", "values": [{"measurement": "Ki", "setting": "MGAM [1]", "value": 0.062, "unit": "mM"}, {"measurement": "Ki for MGAM", "setting": "MGAM [1]", "value": 40, "unit": "µg/mL"}]}, {"smiles": "OC[C@H]1O[C@@H](O)[C@H](O)[C@@H](O[C@@H]2O[C@H]3CO[C@@H]([C@@H]2O)[C@@H]3O[C@@H]2O[C@H](CO)[C@H](O)[C@H](O[C@@H]3O[C@H]4CO[C@@H]([C@@H]3O)[C@@H]4O)[C@H]2O)[C@H]1O", "note": "[neoagarotetraose]", "values": [{"measurement": "inhibition rate", "setting": "α-glucosidase", "value": 33.2, "unit": "%"}]}, {"smiles": "OC1COC(OC2COC(O)C(O)C2O)C(O)C1O", "note": "(stereo not drawn) [X2, β-(1→4)-xylobiose]", "values": [{"measurement": "IC50", "setting": "[2]", "value": 45, "unit": "mM"}, {"measurement": "IC50", "setting": "[3]", "value": 64, "unit": "mM"}, {"measurement": "Inhibition Type (MGAM)", "setting": "MGAM [4]", "value": "Competitive"}, {"measurement": "Vmax^app, inhibitor concentration A", "setting": "MGAM [4]", "value": 0.086, "unit": "DO/min"}, {"measurement": "Vmax^app, inhibitor concentration B", "setting": "MGAM [4]", "value": 0.086, "unit": "DO/min"}, {"measurement": "Vmax^app, inhibitor concentration C", "setting": "MGAM [4]", "value": 0.086, "unit": "DO/min"}, {"measurement": "Ki", "setting": "MGAM [4]", "value": 53.9, "unit": "mM"}, {"measurement": "Inhibition type (α-amylase)", "setting": "α-amylase; Lineweaver–Burk plot", "value": "competitive"}, {"measurement": "Vmax^app (α-amylase)", "setting": "α-amylase; X2 12.42 mg/mL, X3 13.58 mg/mL, without inhibitor 0.056", "value": 0.061, "unit": "DO/min"}]}, {"smiles": "OC1COC(OC2C(O)COC(OC3COC(OC4COC(O)C(O)C4O)C(O)C3O)C2O)C(O)C1O", "note": "(stereo not drawn) [DX4, β-(1→3)-xylosyl-β-(1→4)-xylotriose]", "values": [{"measurement": "IC50", "setting": "[2]", "value": 23.6, "unit": "mM"}, {"measurement": "inhibition at 10640 µg/mL", "setting": "[3]; at 10.64 mg/mL", "value": 2.9, "unit": "%"}, {"measurement": "Inhibition Type (MGAM)", "setting": "MGAM [4]", "value": "Competitive"}, {"measurement": "Vmax^app, inhibitor concentration A", "setting": "MGAM [4]", "value": 0.102, "unit": "DO/min"}, {"measurement": "Vmax^app, inhibitor concentration B", "setting": "MGAM [4]", "value": 0.105, "unit": "DO/min"}, {"measurement": "Vmax^app, inhibitor concentration C", "setting": "MGAM [4]", "value": 0.102, "unit": "DO/min"}, {"measurement": "Ki", "setting": "MGAM [4]", "value": 42.7, "unit": "mM"}]}, {"smiles": "OC1COC(OC2C(O)COC(OC3COC(O)C(O)C3O)C2O)C(O)C1O", "note": "(stereo not drawn) [DX3, β-(1→3)-xylosyl-β-(1→4)-xylobiose]", "values": [{"measurement": "IC50", "setting": "[2]", "value": 32.3, "unit": "mM"}, {"measurement": "IC50", "setting": "[3]", "value": 128, "unit": "mM"}, {"measurement": "Inhibition Type (MGAM)", "setting": "MGAM [4]", "value": "Competitive"}, {"measurement": "Vmax^app, inhibitor concentration A", "setting": "MGAM [4]", "value": 0.101, "unit": "DO/min"}, {"measurement": "Vmax^app, inhibitor concentration B", "setting": "MGAM [4]", "value": 0.093, "unit": "DO/min"}, {"measurement": "Vmax^app, inhibitor concentration C", "setting": "MGAM [4]", "value": 0.102, "unit": "DO/min"}, {"measurement": "Ki", "setting": "MGAM [4]", "value": 44.2, "unit": "mM"}]}, {"smiles": "OC[C@H]1OC(O)[C@H](O)[C@@H](O[C@@H]2O[C@H]3CO[C@@H]([C@@H]2O)[C@@H]3O)[C@H]1O", "note": "(stereo partly shown) [neoagarobiose]", "values": [{"measurement": "inhibition rate", "setting": "α-glucosidase", "value": 35.3, "unit": "%"}]}]}
